Test results published in US6958141B2, “Rhenium and technetium complexes containing a hypoxia-localizing moiety” (Bracco International B.V., priority 1991, dated 2005).

How the values were obtained:
[1] = tested on: Calcium-tolerant ventricular myocytes; assay: Isolated cardiac myocyte studies, retention of radioactivity; assay type: cell-based, male Sprague Dawley rats; conditions: for Oil: dibutyl phthalate layer; for Oil / PCA Pellet / Cell Pellet: means ±S.E.M.; for PCA Pellet: perchloric acid-precipitated pellet; for Cell Pellet: whole cells passed through dibutyl phthalate; for percentage of activity associated with the protein/membrane fragments: cells disrupted by freezing and thawing (3×)
From the text: Calcium-tolerant ventricular myocytes were isolated from hearts of male Sprague Dawley rats (200 g) according to the procedure of Wittenberg and Robinson (B. A. Wittenberg and T. F. Robinson, Cell Tissue Res., 216: 231, 1981) with modifications described previously (W. Rumsey, C. Schlosser, E. M. Nuutinen, M. Robiolio and D. F. Wilson, J. Biol. Chem., 265 (26): 15392, 1990). Cells were used immediately following morphological analysis (using a hemocytometer) of viability and were maintained at 37° C. during the experiments. The number of quiescent, rod shaped cells ranged from 70-90% within a total population of 5-9×10^6 cells.
The isolated myocytes were maintained in either a normoxic, hypoxic or anoxic state. Hypoxia was induced by providing an atmosphere of argon atop of the cells and sealing the flask during the incubation period. Glucose oxidase plus catalase (5/5 mg) was added to argon treated cells to provide anoxia. Cells were suspended (6.5-7.5×10^4 cells/ml) in isolation media and aliquots were added to incubation vials maintained at 37° C.
After incubation with a test compound, myocytes were deproteinated with 1% ice-cold perchloric acid and centrifuged at 12,000 rpm for 30 sec. The supernatent was separated from the pellet and each counted using a LKB 1282 gamma counter. Alternatively, myocytes were separated from the suspending media by passing the cells through 99% dibutyl phthalate by centrifugation at 12,000 rpm for 30 sec. The three phases were separated and counted as described above. Results for the Tc-99m complex of the compound in Example 1 are given below:
Values represent means ±S.E.M. for the number of experiments noted in the parentheses. The values are the percent of total radioactivity represented by each case. PCA pellet=perchloric acid-precipitated pellet which represents the activity associated with proteins/membranes. Cell pellet=whole cells passed through a layer of dibutyl phthalate (oil).
Several Tc-99m complexes were examined in isolated myocytes using the protocol described above. The percentage of activity retained in the cell pellet was determined under anoxic and normoxic states.

[2] = Biodistribution of ^99mTc-complexes in normal (normoxic) Sprague-Dawley rats; assay type: in vivo; conditions: MEAN n=4
Description: Twelve Sprague-Dawley rats were anesthetized with Nembutal (50 mg/kg) and injected with 0.1 mL (20 μCi) of radioactivity via the jugular vein. At 1 minute, 5 minutes and 60 minutes after administration of the radiotracers (n=4 for all time points), the animals were sacrificed by exsanguination, and the target tissues removed, weighed and assayed for radioactivity. The rats were allowed to respire room air throughout the course of the study.

hypoxic border zone = assay: Rat focal cerebral ischemia model (MCA occlusion), double-label autoradiography; assay type: in vivo, spontaneously hypertensive rats (SHR); conditions: SHR, injected 1 hour or five days after MCA occlusion, both time points
Description: A model of focal cerebral ischemia involving tandem occlusion of the internal carotid artery and the ipsilateral middle cerebral artery (MCA) in spontaneously hypertensive rats (SHR) was characterized using the double-label autoradiography procedure described in Example 10. […] Following surgery, which was performed under Halothane anesthesia, the rats were allowed to recover and one hour after the MCA occlusion, ^14C-deoxyglucose was injected as an IV bolus and timed arterial samples were obtained. Twenty-five minutes after ^14C-deoxyglucose injection, ^99mTcCl(DMG)32MP was injected as an IV bolus and the rat was sacrificed 15 seconds later. The brain was rapidly removed and sections and autoradiograms were obtained as described in Example 10. As found in Example 10 for the rabbit LAD occlusion model, the ischemic territory was bordered by a rim of tissue in which glycolysis was elevated. […] Nevertheless, it was clear that the ischemic region is surrounded by a border zone of increased glycolysis. In a second series of experiments, the ^99mTc complex of the ligand described in Example 1 and ^14C-deoxyglucose were co-injected 1 hour or five days after MCA occlusion.

[3] = Anoxia (Glucose Oxidase) (n = 4)
[4] = isolated myocytes, several Tc-99m complexes
[5] = separate study, number of experiments in parentheses
[6] = 1 Min. after jugular vein injection
[7] = 5 Min. after jugular vein injection
[8] = 60 Min. after jugular vein injection

[^99mTc]Oxo[[3,3,9,9-tetramethyl-1-(2-nitro-1H-imidazo-1-yl)-4,8-diazaundecane-2,10-dione dioximato]-(3-)-N,N′,N″,N′″]technetium(V) [^99mTc complex from ligand in Ex. 1]
Anoxia/normoxia [1]: 2.7
Anoxia/normoxia ratio [1]: 2.3
Hypoxia/normoxia [1]: 1.7
Oil [1, 3]: 9.0 ± 2.6% of total radioactivity
PCA Pellet [1, 3]: 55.5 ± 5.8% of total radioactivity
Cell Pellet [1, 3]: 48.8 ± 4.2% of total radioactivity
Oil ([1]; Hypoxia (Argon) (n = 4)): 20.1 ± 5.3% of total radioactivity
PCA Pellet ([1]; Hypoxia (Argon) (n = 4)): 48.5 ± 3.4% of total radioactivity
Cell Pellet ([1]; Hypoxia (Argon) (n = 4)): 36.9 ± 8.8% of total radioactivity
Oil ([1]; Normoxia (n = 5)): 22.8 ± 2.2% of total radioactivity
PCA Pellet ([1]; Normoxia (n = 5)): 40.5 ± 2.7% of total radioactivity
Cell Pellet ([1]; Normoxia (n = 5)): 23.2 ± 3.7% of total radioactivity
percentage of activity associated with the protein/membrane fragments ([1]; anoxic (glucose oxidase), n=3): 25.3±2.5%
percentage of activity associated with the protein/membrane fragments ([1]; normoxic, n=3): 23.3±0.8%
% in Cell Pellet, Anoxia [1, 4]: 53.0 ± 2.2%
% in Cell Pellet, Normoxia [1, 4]: 24.1 ± 2.3%
effect of FCCP (uncoupler) on retention ([1]; normoxic cells): had no effect on the retention
effect of cyanide on retention ([1]; normoxic cells, n=3): had no effect on retention in normoxic cells
uptake in isolated myocytes, Anoxia [1, 5]: 48 ± 6 (3)
uptake in isolated myocytes, Hypoxia [1, 5]: 30 ± 7 (3)
uptake in isolated myocytes, Normoxia [1, 5]: 18 ± 1 (3)
Percent ID/g Bladder [2, 6]: 0.15 Percent ID/g
Percent ID/g Blood [2, 6]: 0.47 Percent ID/g
Percent ID/g Bone [2, 6]: 0.37 Percent ID/g
Percent ID/g Brain [2, 6]: 0.30 Percent ID/g
Percent ID/g Heart [2, 6]: 1.32 Percent ID/g
Percent ID/g Kidneys [2, 6]: 2.59 Percent ID/g
Percent ID/g Liver [2, 6]: 2.06 Percent ID/g
Percent ID/g Lower Intestine [2, 6]: 0.50 Percent ID/g
Percent ID/g Lungs [2, 6]: 0.71 Percent ID/g
Percent ID/g Muscle [2, 6]: 0.25 Percent ID/g
Percent ID/g Spleen [2, 6]: 0.84 Percent ID/g
Percent ID/g Stomach [2, 6]: 0.67 Percent ID/g
Percent ID/g Thymus [2, 6]: 0.55 Percent ID/g
Percent ID/g Thyroid [2, 6]: 0.65 Percent ID/g
Percent ID/g Upper Intestine [2, 6]: 1.13 Percent ID/g
Percent ID/g Bladder [2, 7]: 0.68 Percent ID/g
Percent ID/g Blood [2, 7]: 0.36 Percent ID/g
Percent ID/g Bone [2, 7]: 0.23 Percent ID/g
Percent ID/g Brain [2, 7]: 0.11 Percent ID/g
Percent ID/g Heart [2, 7]: 0.34 Percent ID/g
Percent ID/g Kidneys [2, 7]: 1.15 Percent ID/g
Percent ID/g Liver [2, 7]: 3.63 Percent ID/g
Percent ID/g Lower Intestine [2, 7]: 0.40 Percent ID/g
Percent ID/g Lungs [2, 7]: 0.39 Percent ID/g
Percent ID/g Muscle [2, 7]: 0.14 Percent ID/g
Percent ID/g Spleen [2, 7]: 0.45 Percent ID/g
Percent ID/g Stomach [2, 7]: 0.56 Percent ID/g
Percent ID/g Thymus [2, 7]: 0.25 Percent ID/g
Percent ID/g Thyroid [2, 7]: 0.77 Percent ID/g
Percent ID/g Upper Intestine [2, 7]: 0.98 Percent ID/g
Percent ID/g Bladder [2, 8]: 2.84 Percent ID/g
Percent ID/g Blood [2, 8]: 0.28 Percent ID/g
Percent ID/g Bone [2, 8]: 0.11 Percent ID/g
Percent ID/g Brain [2, 8]: 0.02 Percent ID/g
Percent ID/g Heart [2, 8]: 0.09 Percent ID/g
Percent ID/g Kidneys [2, 8]: 0.45 Percent ID/g
Percent ID/g Liver [2, 8]: 2.45 Percent ID/g
Percent ID/g Lower Intestine [2, 8]: 0.36 Percent ID/g
Percent ID/g Lungs [2, 8]: 0.16 Percent ID/g
Percent ID/g Muscle [2, 8]: 0.05 Percent ID/g
Percent ID/g Spleen [2, 8]: 0.23 Percent ID/g
Percent ID/g Stomach [2, 8]: 1.80 Percent ID/g
Percent ID/g Thymus [2, 8]: 0.05 Percent ID/g
Percent ID/g Thyroid [2, 8]: 0.15 Percent ID/g
Percent ID/g Upper Intestine [2, 8]: 4.60 Percent ID/g
uptake in brain autoradiograms (hypoxic border zone): increased uptake in the hypoxic border zone relative to surrounding normoxic tissue
